Assay: Organic solvent solubility test of compound
Format: physicochemical
Settings: compound in propylene glycol monomethyl ether acetate, 23° C., ultrasonic waves 30 minutes, visual
Procedure: The solubility of the compound in propylene glycol monomethyl ether acetate was measured as the solubility of the compound in an organic solvent.
A: 5.0% by mass Amount of dissolution
C: Amount of dissolution <3.0% by mass

SMILES | Solubility in organic solvent
Oc1ccc([Te](Cl)(Cl)c2ccc(O)cc2)cc1 [BHPT, bis(4-hydroxyphenyl)tellurium dichloride] | A (5.0% by mass Amount of dissolution)
CC1(OC(=O)COc2ccc([Te](Cl)(Cl)c3ccc(OCC(=O)OC4(C)C5CC6CC(C5)CC4C6)cc3)cc2)C2CC3CC(C2)CC1C3 (centres unmarked) [BHPT-ADBAC, bis(4-(2-methyl-2-adamantyloxycarbonylmethoxy)phenyl)tellurium dichloride] | A (5.0% by mass Amount of dissolution)
CC(C)(C)OC(=O)Oc1ccc([Te](Cl)(Cl)c2ccc(OC(=O)OC(C)(C)C)cc2)cc1 [BHPT-BOC, bis(tert-butoxycarboxyphenyl)tellurium dichloride] | A (5.0% by mass Amount of dissolution)
CCOC(C)Oc1ccc([Te](Cl)(Cl)c2ccc(OC(C)OCC)cc2)cc1 (centres unmarked) [BHPT-EE, bis(ethoxyethylphenyl)tellurium dichloride] | A (5.0% by mass Amount of dissolution)
Oc1ccc([Te](Cl)(Cl)c2ccc(O)cc2O)cc1 [CCHT, (2,4-dihydroxyphenyl) (4-hydroxyphenyl)tellurium dichloride] | A (5.0% by mass Amount of dissolution)
CC1(OC(=O)COc2ccc([Te](Cl)(Cl)c3ccc(OCC(=O)OC4(C)C5CC6CC(C5)CC4C6)cc3OCC(=O)OC3(C)C4CC5CC(C4)CC3C5)cc2)C2CC3CC(C2)CC1C3 (centres unmarked) [CCHT-ADBAC] | A (5.0% by mass Amount of dissolution)
Oc1ccc([Te](Cl)(Cl)c2ccc(O)c(-c3ccccc3)c2)cc1-c1ccccc1 [Ph-BHPT, bis(3-phenyl-4-hydroxyphenyl)tellurium dichloride] | A (5.0% by mass Amount of dissolution)
CC1(OC(=O)COc2ccc([Te](Cl)(Cl)c3ccc(OCC(=O)OC4(C)C5CC6CC(C5)CC4C6)c(-c4ccccc4)c3)cc2-c2ccccc2)C2CC3CC(C2)CC1C3 (centres unmarked) [Ph-BHPT-ADBAC] | A (5.0% by mass Amount of dissolution)
Oc1ccc([Te]c2ccc(O)c(-c3ccccc3)c2)cc1-c1ccccc1 [Ph-TDP, bis(3-phenyl-4-hydroxyphenyl)tellurium] | A (5.0% by mass Amount of dissolution)
CC1(OC(=O)COc2ccc([Te]c3ccc(OCC(=O)OC4(C)C5CC6CC(C5)CC4C6)c(-c4ccccc4)c3)cc2-c2ccccc2)C2CC3CC(C2)CC1C3 (centres unmarked) [Ph-TDP-ADBAC] | A (5.0% by mass Amount of dissolution)
CC(C)(C)OC(=O)COc1ccc([Te]c2ccc(OCC(=O)OC(C)(C)C)c(-c3ccccc3)c2)cc1-c1ccccc1 [Ph-TDP-BOC] | A (5.0% by mass Amount of dissolution)
CCOC(C)Oc1ccc([Te](Cl)(Cl)c2ccc(OC(C)OCC)c(-c3ccccc3)c2)cc1-c1ccccc1 (centres unmarked) [Ph-TDP-EE] | A (5.0% by mass Amount of dissolution)
Oc1ccc([Te]c2ccc(O)cc2)cc1 [TDP, 4,4′-telluriumdiphenol] | A (5.0% by mass Amount of dissolution)
CC1(OC(=O)COc2ccc([Te]c3ccc(OCC(=O)OC4(C)C5CC6CC(C5)CC4C6)cc3)cc2)C2CC3CC(C2)CC1C3 (centres unmarked) [TDP-ADBAC] | A (5.0% by mass Amount of dissolution)
